# Earlier results, collected in publication PMC12332767 (RSC Chemical Biology, 2025).
substance,measurement,setting,value
heparin [HI],Insoluble in chloroform,HI alone,98.5%
same,Soluble in chloroform in interaction with PC,HI in interaction with PC,74%
